Non-standard residues stand in square brackets, D forms with d. No end group written: not given here. hTyr = N[C@@H](CCc1ccc(O)cc1)C(=O)O; hPhe = N[C@@H](CCc1ccccc1)C(=O)O; Phg = N[C@H](C(=O)O)c1ccccc1; Ava = NCCCCC(=O)O; βAla = NCCC(=O)O
Columns and labels:
[1] = target: δ receptors, mouse vas deferens (MVD) (Mus musculus, UniProt P32300); experiment: mouse vas deferens (MVD) in vitro functional assay; conditions: for MVD observed percent efficacy at 10 μM: value in brackets; for MVD functional activity class / EC50: mouse vas deferens; for EC50: read-out: In Vitro Functional Assay [ED50 in μM] MVD, rhenium-complexed peptides
δ receptors, mouse vas deferens (MVD), sequence (P32300 whole entry): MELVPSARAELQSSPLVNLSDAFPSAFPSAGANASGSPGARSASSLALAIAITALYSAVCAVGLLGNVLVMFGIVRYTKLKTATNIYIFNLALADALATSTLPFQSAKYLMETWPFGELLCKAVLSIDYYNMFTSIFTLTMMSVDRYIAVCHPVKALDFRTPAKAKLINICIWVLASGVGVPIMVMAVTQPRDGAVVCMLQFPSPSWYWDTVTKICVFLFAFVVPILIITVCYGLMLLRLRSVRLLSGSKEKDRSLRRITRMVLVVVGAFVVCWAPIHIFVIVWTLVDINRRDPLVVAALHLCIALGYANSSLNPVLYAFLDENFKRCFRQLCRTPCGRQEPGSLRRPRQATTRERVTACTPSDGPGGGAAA

[2] = tested on: μ receptors, guinea pig ileum (GPI); experiment: guinea pig ileum (GPI) in vitro functional assay; conditions: for EC50: read-out: In Vitro Functional Assay [ED50 in μM] GPI, rhenium-complexed peptides; for EC50 / GPI functional activity class: guinea pig ileum; for GPI observed percent efficacy at 10 μM: value in brackets
κ opiate receptor = κ opiate receptor (Cavia porcellus, UniProt P41144); experiment: κ receptor binding assay, guinea-pig brain membrane, 3H-U69593 displacement; conditions: read-out: Receptor Binding Assay [Ki in μM] Kappa Receptor
κ opiate receptor, sequence (P41144 whole entry): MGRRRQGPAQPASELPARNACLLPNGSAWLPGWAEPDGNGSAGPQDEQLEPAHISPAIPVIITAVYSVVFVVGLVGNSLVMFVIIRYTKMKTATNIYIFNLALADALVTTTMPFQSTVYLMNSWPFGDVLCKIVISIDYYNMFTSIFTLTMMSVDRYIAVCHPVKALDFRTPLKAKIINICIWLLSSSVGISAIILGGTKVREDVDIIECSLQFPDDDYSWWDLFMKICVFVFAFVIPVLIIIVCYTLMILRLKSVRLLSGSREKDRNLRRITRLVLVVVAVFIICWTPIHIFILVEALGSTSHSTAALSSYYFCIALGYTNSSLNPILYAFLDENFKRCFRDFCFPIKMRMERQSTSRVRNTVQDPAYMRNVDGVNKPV

## (p-OH)—C6H4(CH2)2—NH—CO—CH(NH2)—(CH2)2—CO-Gly-Phe-D-Cys-NH2
[1]
  MVD observed percent efficacy at 10 μM: 9%

## HTyr-β-Ala-Gly-Phe-Cys-NH2 ([hTyr][βAla]GFC-NH2; also: rhenium complex)
[1]
  MVD observed percent efficacy at 10 μM: 30%

## HTyr-β-Ala-Gly-Phe-D-Cys-NH2
[1]
  MVD observed percent efficacy at 10 μM: 11%

## Leu-Enkephalin [reference compound]
[2]
  EC50: 0.246 µM

## Lys-Tyr-Cys-OH
[2]
  GPI observed percent efficacy at 10 μM: 34%
[1]
  MVD observed percent efficacy at 10 μM: 41%

## NH2(CH2)4—CO-Phe-Asp-Cys-HTyr-NH2 ([Ava]FDC[hTyr]-NH2; also: rhenium complex)
[1]
  MVD observed percent efficacy at 10 μM: 20%

## Tyr-Ala-Cys-HPhe-NH2 (YAC[hPhe]-NH2; also: rhenium complex)
[2]
  GPI functional activity class: WPA
[1]
  MVD functional activity class: WPA

## Tyr-Ala-Cys-Phe-NH2 (YACF-NH2; also: rhenium complex)
[2]
  GPI functional activity class: WPA
[1]
  MVD functional activity class: WPA

## Tyr-Ala-Cys-Phg-NH2 (YAC[Phg]-NH2; also: rhenium complex)
[2]
  GPI functional activity class: WPA

## Tyr-Ala-Phe-Cys-OH (YAFC-OH; also: rhenium complex)
[2]
  GPI observed percent efficacy at 10 μM: 8%
[1]
  MVD observed percent efficacy at 10 μM: 48%

## Tyr-Cys-Gly-Cys-NH2 (YCGC-NH2; cysteine pairing not given here; also: rhenium complex)
[2]
  GPI observed percent efficacy at 10 μM: 14%
[1]
  MVD observed percent efficacy at 10 μM: 34%

## Tyr-Gly-Cys-HPhe-NH2 (YGC[hPhe]-NH2; also: rhenium complex)
[2]
  GPI functional activity class: WPA
[1]
  MVD functional activity class: WPA

## Tyr-Gly-Cys-Phg-NH2 (YGC[Phg]-NH2; also: rhenium complex)
[2]
  GPI functional activity class: WPA
[1]
  MVD functional activity class: WPA

## Tyr-Lys-Cys-OH
[2]
  GPI observed percent efficacy at 10 μM: 41%
[1]
  MVD observed percent efficacy at 10 μM: 48%

## Tyr-Val-Cys-Phe-NH2 (YVCF-NH2; also: rhenium complex)
[1]; ED30 instead of ED50
  MVD [ED30]: 1.42 ± 0.21 µM

## Tyr-[dK]-Cys-OH
[2]
  GPI observed percent efficacy at 10 μM: 57%
[1]
  MVD observed percent efficacy at 10 μM: 9%

## Tyr-β-Ala-Gly-Phe-Cys-NH2 (Y[βAla]GFC-NH2; also: rhenium complex)
[1]
  MVD observed percent efficacy at 10 μM: 22%

## YAGFC [Tyr-Ala-Gly-Phe-Cys-NH2]
[2]
  EC50: > 10 µM
[1]
  EC50: > 10 µM

## YCGFC [Tyr-Cys-Gly-Phe-Cys-NH2]
κ opiate receptor
  Ki: 2.1 µM
[2]
  EC50: 0.612 µM

## YC[dF]G-NH2
[2]
  EC50: > 10 µM
[1]
  EC50: > 10 µM

## YGCF [Tyr-Gly-Cys-Phe-NH2]
[2]
  EC50: > 10 µM
[1]
  EC50: 1.35 µM

## YGGCF [Tyr-Gly-Gly-Cys-Phe-NH2]
[2]
  EC50: > 10 µM
[1]
  EC50: > 10 µM

## YG[dF]C-NH2
[2]
  EC50: > 10 µM
[1]
  EC50: > 10 µM

## Y[dA]CF-NH2
[2]; ED40 instead of ED50
  GPI [ED40]: 3.06 ± 0.29 µM
[1]
  MVD observed percent efficacy at 10 μM: 16%

## Y[dK]CF
[2]
  EC50: 3.03 ± 0.43 µM

## Y[βAla]FGC-OH
[2]
  GPI observed percent efficacy at 10 μM: 51%
[1]
  MVD observed percent efficacy at 10 μM: 17%

## Y[βAla]GF[dC]-NH2
[1]
  MVD observed percent efficacy at 10 μM: 30%

## [dK]-Tyr-Cys-OH
[2]
  GPI observed percent efficacy at 10 μM: 28%
[1]
  MVD observed percent efficacy at 10 μM: 18%

Reference: US6979436B2, “Opioid metallopeptide compositions and methods” (Palatin Technologies, Inc., priority 1999, dated 2005)
